pIC50: −log10 of the molar value. Read-outs that look alike come from different tables or passages of the source.
Legend:
EGFR L858R/T790M/C797S = EGFR L858R/T790M/C797S (Homo sapiens, UniProt P00533, C797S/L858R/T790M); assay: Kinase assay (mobility shift), EGFR L858R/T790M/C797S; assay type: biochemical
A431 (WT) = assay: A431 cells proliferation assay (CellTiter Glo); assay type: cell-based; details: Homo sapiens, A-431; cell proliferation, 72 h
How it was run: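 Wild-type A431 cells seeded at 5000/well in DMEM/10% FBS were exposed 72 h at 37° C to compound at 10000 nM top, 3-fold down to 1.5 nM, in 0.5% DMSO. Viability by CellTiter-Glo luminescence; IC50 from four-parameter nonlinear regression.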

EGFR Del19/T790M/C797S = EGFR Del19/T790M/C797S (Homo sapiens, UniProt P00533, T790M/C797S, form not given); assay: Kinase assay (mobility shift), EGFR Del19/T790M/C797S; assay type: biochemical
Sequence of EGFR Del19/T790M/C797S (P00533 with tags, fused parts or gaps DEL746-750/T790M/C797S, form open): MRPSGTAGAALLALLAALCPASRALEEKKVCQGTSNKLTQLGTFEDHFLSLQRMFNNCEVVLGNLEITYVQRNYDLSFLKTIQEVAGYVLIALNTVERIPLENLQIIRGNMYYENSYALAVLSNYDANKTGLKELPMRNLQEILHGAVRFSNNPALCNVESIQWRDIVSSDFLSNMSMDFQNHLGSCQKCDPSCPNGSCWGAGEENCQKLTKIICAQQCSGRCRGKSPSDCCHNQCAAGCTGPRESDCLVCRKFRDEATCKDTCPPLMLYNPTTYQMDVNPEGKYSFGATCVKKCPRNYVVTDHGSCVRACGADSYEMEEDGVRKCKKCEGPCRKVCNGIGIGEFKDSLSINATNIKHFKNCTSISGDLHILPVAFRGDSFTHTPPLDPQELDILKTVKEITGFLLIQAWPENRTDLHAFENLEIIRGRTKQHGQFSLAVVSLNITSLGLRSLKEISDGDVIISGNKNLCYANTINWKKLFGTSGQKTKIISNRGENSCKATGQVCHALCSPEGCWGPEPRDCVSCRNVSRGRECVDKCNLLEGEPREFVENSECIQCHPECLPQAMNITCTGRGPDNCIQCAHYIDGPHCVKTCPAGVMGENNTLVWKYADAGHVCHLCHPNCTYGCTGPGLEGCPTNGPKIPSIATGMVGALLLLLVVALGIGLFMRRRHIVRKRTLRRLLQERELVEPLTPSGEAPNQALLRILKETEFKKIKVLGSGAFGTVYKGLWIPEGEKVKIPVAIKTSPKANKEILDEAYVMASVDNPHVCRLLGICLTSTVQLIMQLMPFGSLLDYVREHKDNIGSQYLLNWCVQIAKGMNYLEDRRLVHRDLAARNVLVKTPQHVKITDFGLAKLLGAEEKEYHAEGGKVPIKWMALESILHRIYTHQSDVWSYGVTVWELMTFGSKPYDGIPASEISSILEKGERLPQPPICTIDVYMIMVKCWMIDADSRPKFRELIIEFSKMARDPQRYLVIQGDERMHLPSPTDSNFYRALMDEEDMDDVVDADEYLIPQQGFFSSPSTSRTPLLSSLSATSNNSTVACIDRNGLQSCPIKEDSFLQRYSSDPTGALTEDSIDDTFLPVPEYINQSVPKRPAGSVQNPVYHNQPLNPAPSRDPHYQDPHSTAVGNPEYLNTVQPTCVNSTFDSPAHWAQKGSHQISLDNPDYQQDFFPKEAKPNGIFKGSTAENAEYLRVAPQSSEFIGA
Method: (§1) Test 1 Kinase Assay for EGFR Del19/T790M/C797S and EGFR Wildtype
(§2) Enzyme reaction protocol are as follows:
(§3) 1. Preparing 1* Kinase buffer as followed.
(§4) 2. Preparing Compound Concentration Gradient: Compounds were tested at a concentration of 300 nM, diluted to 100-fold final concentration in 100% DMSO solution in 96-well plates, and compounds were diluted 3 times with Precision, 10 concentrations. Each concentration of the compound was then further diluted to a 5-fold final concentration of the intermediate dilution solution using 1* Kinase buffer.
(§5) 3.5 μL of each of the prepared intermediate dilution compounds was separately added to the compound wells of the 384-well plate, and each concentration was tested for duplicate wells; 5 μL of 5% DMSO was added to the negative control wells and the positive control wells, respectively.
(§6) 4. 2.5-fold final concentration of the kinase solution was prepared using 1*Kinase buffer.
(§7) 5. Add 10 μL of 2.5-fold final concentration of kinase solution to the compound well and positive control well; add 10 μL of 1*Kinase buffer to the negative control well.
(§8) 6. Centrifuge at 1000 rpm for 30 seconds, shake the reaction plate and incubate for 10 minutes at room temperature.
(§9) 7. A mixed solution of 2.5 times the final concentration of ATP and Kinase substrate (5-FAM-EEPLYWSFPAKKK-CONH2) was prepared using 1*Kinase buffer.
(§10) 8. 10 μL of a 2.5-fold final concentration of a mixed solution of ATP and a substrate was added to initiate the reaction.
(§11) 9. Centrifuge the 384-well plate at 1000 rpm for 30 seconds, mix by shaking, and incubate at room temperature for the corresponding time.
(§12) 10. Add 30 μL of the stop solution to stop the kinase reaction, centrifuge at 1000 rpm for 30 seconds, and mix by shaking.
(§13) 11. Read the conversion rate with Caliper EZ Reader.
(§14) Convert conversion values to inhibition values:
(§15) Percent inhibition 32 (max-conversion)/(max-min)*100.
(§16) “max” stands for the mean value of the positive control well ratio; “min” stands for the mean value of the negative control well.
(§17) Fit the data in log(inhibitor) vs. response Variable slope of GraphPad Prism 5 to obtain IC50 values.
(§18) Equation used is: Y=Bottom+(Top-Bottom)/(1+(IC50/X)^HillSlope)

Ba/F3-Del19/T790M/C797S = Ba/F3-Del19/T790M/C797S (Homo sapiens, UniProt P00533, T790M/C797S, cells depend on it, form not given); assay: Ba/F3-Del19/T790M/C797S cells proliferation assay (CellTiter Glo); assay type: cell-based; details: cell proliferation, 72 h, read-out: Ba/F3-Del19/T790M/C797S IC50
Sequence of Ba/F3-Del19/T790M/C797S (P00533 with tags, fused parts or gaps DEL746-750/T790M/C797S, form open): as above
How it was run: (§19)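 Ba/F3 cells carrying EGFR Del19/T790M/C797S or L858R/T790M/C797S seeded at 2000 cells/well and exposed 72 h at 37 °C to compound (1000 nM top, 3-fold series, 0.5% DMSO). Viability read by CellTiter-Glo luminescence; IC50 from four-parameter non-linear regression.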

EGFR WT = EGFR WT (Homo sapiens, UniProt P00533); assay: Kinase assay (mobility shift), EGFR wildtype; assay type: biochemical; details: top concentration 300 nM
Sequence of EGFR WT (P00533 25-1210): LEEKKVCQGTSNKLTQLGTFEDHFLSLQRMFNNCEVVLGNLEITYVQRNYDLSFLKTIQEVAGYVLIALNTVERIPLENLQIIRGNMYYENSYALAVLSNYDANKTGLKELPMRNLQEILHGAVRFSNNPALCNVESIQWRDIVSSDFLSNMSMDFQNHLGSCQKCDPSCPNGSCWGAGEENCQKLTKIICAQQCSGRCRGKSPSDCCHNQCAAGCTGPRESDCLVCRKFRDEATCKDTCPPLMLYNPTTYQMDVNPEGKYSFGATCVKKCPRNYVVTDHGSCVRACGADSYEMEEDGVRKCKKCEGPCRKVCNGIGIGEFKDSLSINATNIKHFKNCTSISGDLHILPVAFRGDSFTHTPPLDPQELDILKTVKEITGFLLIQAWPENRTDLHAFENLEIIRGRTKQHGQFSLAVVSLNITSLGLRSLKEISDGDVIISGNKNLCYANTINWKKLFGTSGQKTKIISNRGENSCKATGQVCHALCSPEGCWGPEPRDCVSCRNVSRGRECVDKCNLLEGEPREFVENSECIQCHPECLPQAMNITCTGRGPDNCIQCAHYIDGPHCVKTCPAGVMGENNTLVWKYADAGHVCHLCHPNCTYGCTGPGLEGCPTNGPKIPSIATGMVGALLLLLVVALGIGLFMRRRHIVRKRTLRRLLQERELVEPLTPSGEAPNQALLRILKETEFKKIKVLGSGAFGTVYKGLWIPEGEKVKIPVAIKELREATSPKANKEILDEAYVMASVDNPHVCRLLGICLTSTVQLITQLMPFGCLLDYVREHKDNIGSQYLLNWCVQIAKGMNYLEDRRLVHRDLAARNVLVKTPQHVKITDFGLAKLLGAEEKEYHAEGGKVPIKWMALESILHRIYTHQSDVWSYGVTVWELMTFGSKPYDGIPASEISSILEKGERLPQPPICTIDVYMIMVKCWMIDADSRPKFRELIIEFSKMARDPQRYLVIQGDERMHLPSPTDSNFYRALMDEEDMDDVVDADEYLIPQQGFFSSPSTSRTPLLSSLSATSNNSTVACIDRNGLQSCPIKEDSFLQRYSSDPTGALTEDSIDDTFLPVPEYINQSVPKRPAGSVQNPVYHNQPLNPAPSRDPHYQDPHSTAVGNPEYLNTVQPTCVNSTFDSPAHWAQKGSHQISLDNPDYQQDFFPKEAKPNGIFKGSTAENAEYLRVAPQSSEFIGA
Method: as §1, §2, §3, §4, §5, §6, §7, §8, §9, §10, §11, §12, §13, §14, §15, §16, §17, §18

Ba/F3-L858R/T790M/C797S = Ba/F3-L858R/T790M/C797S (Homo sapiens, UniProt P00533, T790M/C797S/L858R, cells depend on it); assay: Ba/F3-L858R/T790M/C797S cells proliferation assay (CellTiter Glo); assay type: cell-based; details: cell proliferation, 72 h, read-out: Ba/F3-L858R/T790M/C797S IC50
Sequence of Ba/F3-L858R/T790M/C797S (P00533 whole entry T790M/C797S/L858R): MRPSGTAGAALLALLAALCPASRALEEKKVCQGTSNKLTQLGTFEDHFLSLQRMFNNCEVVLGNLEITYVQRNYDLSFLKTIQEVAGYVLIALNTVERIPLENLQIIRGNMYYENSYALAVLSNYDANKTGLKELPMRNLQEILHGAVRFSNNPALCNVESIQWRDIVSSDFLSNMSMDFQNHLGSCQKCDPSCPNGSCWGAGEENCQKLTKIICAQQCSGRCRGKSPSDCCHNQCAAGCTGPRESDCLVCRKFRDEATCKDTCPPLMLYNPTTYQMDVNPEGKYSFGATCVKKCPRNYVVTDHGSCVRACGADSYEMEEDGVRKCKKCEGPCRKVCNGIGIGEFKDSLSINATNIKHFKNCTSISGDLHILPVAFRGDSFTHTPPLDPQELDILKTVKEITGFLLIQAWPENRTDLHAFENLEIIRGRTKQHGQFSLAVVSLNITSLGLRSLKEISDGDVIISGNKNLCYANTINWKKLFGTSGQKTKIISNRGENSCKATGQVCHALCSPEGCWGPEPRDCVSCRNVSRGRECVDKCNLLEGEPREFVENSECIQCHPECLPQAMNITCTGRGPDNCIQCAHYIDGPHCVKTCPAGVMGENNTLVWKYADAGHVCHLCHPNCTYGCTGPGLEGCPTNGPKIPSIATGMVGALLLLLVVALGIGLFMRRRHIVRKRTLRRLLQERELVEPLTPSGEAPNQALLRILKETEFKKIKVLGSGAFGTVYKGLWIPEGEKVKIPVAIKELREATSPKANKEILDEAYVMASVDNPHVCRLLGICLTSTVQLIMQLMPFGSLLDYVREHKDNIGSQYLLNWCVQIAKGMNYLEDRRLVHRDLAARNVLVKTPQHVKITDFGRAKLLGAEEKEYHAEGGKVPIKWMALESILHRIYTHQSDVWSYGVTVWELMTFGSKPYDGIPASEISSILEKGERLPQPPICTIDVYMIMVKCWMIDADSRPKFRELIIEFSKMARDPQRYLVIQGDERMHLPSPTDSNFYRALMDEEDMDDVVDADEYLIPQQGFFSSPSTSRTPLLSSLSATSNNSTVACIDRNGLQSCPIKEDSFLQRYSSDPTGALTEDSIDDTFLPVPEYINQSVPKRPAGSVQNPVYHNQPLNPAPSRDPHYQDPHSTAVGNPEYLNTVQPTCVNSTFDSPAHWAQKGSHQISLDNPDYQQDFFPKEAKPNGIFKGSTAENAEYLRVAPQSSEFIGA
How it was run: as §19

[1] = Pharmacokinetic assay, oral administration; assay type: in vivo; details: rat, male SD rats, plasma
How it was run: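 Male SD rats (n=3), dosed by oral gavage after overnight fast (≥12 h pre- to 4 h post-dose). Orbital plasma sampled 15 min–24 h, assayed by LC-MS/MS; parameters from non-compartmental analysis.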

[2] = p.o. 10 mg/kg, formulation 5% DMSO/5% Solutol/90% normal saline
[3] = p.o. 5 mg/kg, formulation differs per row

Row | Structure (SMILES) | pIC50 (EGFR L858R/T790M/C797S; numeric values) | pIC50 (A431 (WT)) | pIC50 (EGFR Del19/T790M/C797S) | GI50 (Ba/F3-Del19/T790M/C797S; numeric values) [nM] | pIC50 (EGFR WT) | GI50 (Ba/F3-L858R/T790M/C797S; numeric values) [nM] | pIC50 (EGFR L858R/T790M/C797S; class symbols) | AUC(0-t) [1, 2] [ng·h/mL] | Cmax [1, 2] [ng/mL] | Tmax [1, 2] [h] | half-life [1, 2] [h] | AUC(0-t) [1, 3] [ng·h/mL] | Cmax [1, 3] [ng/mL] | Tmax [1, 3] [h] | half-life [1, 3] [h] | GI50 (Ba/F3-Del19/T790M/C797S; class symbols) [nM] | GI50 (Ba/F3-L858R/T790M/C797S; class symbols) [nM]
1 | Cc1cc(Nc2ncc(Cl)c(Nc3ccccc3P(C)(C)=O)n2)ccc1N1CCC2(CC1)CC(N)C2 [Example 14, (2-((2-((4-(2-amino-7-azaspiro[3.5]nonan-7-yl)-3-methylphenyl)amino)-5-chloropyrimidin-4-yl)amino)phenyl)dimethylphosphine oxide] | 8.92 | 7.76 | 9.51 | 13.2 | 7.57 | 15.1 |  |  |  |  |  |  |  |  |  |  | 
2 | Cc1cc(Nc2ncc(Cl)c(Nc3ccccc3P(C)(C)=O)n2)ccc1N1CC2(CCC(N(C)C)CC2)C1 [Example 1, (2-((5-chloro-2-((4-(7-(dimethylamino)-2-azaspiro[3.5]nonan-2-yl)-3-methylphenyl)amino)pyrimidin-4-yl)amino)phenyl)dimethylphosphine oxide] |  | 7.31 | 9.05 | 5.8 | 7.37 | 6 | ≥ 8.70 | 1540 | 141 | 1.67 | 6.53 |  |  |  |  |  | 
3 | Cc1cc(Nc2ncc(Cl)c(Nc3ccccc3P(C)(C)=O)n2)ccc1N1CC2(CCC(NC3CC3)CC2)C1 [Example 4, (2-((5-chloro-2-((4-(7-(cyclopropylamino)-2-azaspiro[3.5]nonan-2-yl)-3-methylphenyl)amino)pyrimidin-4-yl)amino)phenyl)dimethylphosphine oxide] | 8.82 | 7.57 | 9.00 |  | 7.68 |  |  |  |  |  |  | 1020 | 71.3 | 6 | 6.27 | ≤ 10 | 10 to 50

Source: US20220064196A1, “EGFR Inhibitors, Compositions and Methods Thereof” (Betta Pharmaceuticals Co., Ltd., priority 2019, published 2022)
